Earlier results on 1 molecule are cited in patent publication US7105176B2, “Production of solid preparations of water-soluble, sparingly water-soluble or water-insoluble active compounds” (BASF Aktiengesellschaft, priority 2000, dated 2006).

SMILES strings stand for the structures.

The conditions of this data set: at 314 nm.

For `CCCCC(CC)COC(=O)c1ccc(Nc2nc(Nc3ccc(C(=O)OCC(CC)CCCC)cc3)nc(Nc3ccc(C(=O)OCC(CC)CCCC)cc3)n2)cc1` (stereo not shown) [Uvinul® T150, 2,4,6-trianilino-p-(carbo-2′-ethylhexyl-1′-oxy)-1,3,5-triazine], the extinction coefficient is recorded as above 1500.
